Data: US20250325498A1, “8-OHdG CONCENTRATION DECREASE ACCELERATOR, MALONDIALDEHYDE (MDA) CONCENTRATION DECREASE ACCELERATOR, ZIP4 CONCENTRATION INCREASE ACCELERATOR, OR SERUM ZINC CONCENTRATION INCREASE ACCELERATOR FOR JEJUNUM” (WATANABE OYSTER LABORATORY, CO., LTD., priority 2022, published 2025)

Assays:
Format in all cases: in vivo, rat
ZIP4 = experiment: Jejunal ZIP4 concentration in rats fed a low-zinc diet; settings: male Slc/SD rats, low-zinc diet 7 days, gavage on days 5 and 6, organs harvested 24 hours after day 6 dose; low-zinc diet group 4.38±0.33, standard diet group 8.89±0.71
Description: (§1) Male Slc/SD rats (4 weeks old) were used as experimental animals. (Grouping and Diet)
(§2) The rats were divided into the following groups, and the diets were as follows.
(§3) Low-zinc diet group (n=6): Free intake of a low-zinc diet (The concentration of zinc in the low-zinc diet: 3.9 mg zinc/kg diet) Note that the zinc concentration of the low-zinc diet is assumed to be 2.5 mg zinc/kg diet to 10 mg zinc/kg diet.)
(§4) From the start date of the regular breeding, the standard diet was fed to the standard diet group, and the low-zinc diet was fed to four groups including the low-zinc diet group, the low-zinc diet+precipitation fraction group, the low-zinc diet+supernatant fraction group, and the low-zinc diet+synthetic DHMBA group. They were fed by free intake. On days 5 and 6, 0.5% methyl cellulose solution was given to the standard diet group and the low-zinc diet group by gavage administration. The Pacific oyster extraction supernatant fraction was given to the low-zinc diet+supernatant fraction group by gavage administration. The Pacific oyster extraction precipitation fraction was given to the low-zinc diet+precipitation fraction group by gavage administration. The synthetic DHMBA was given to the low-zinc diet+synthetic DHMBA group by gavage administration. […]
(§5) The jejunal SOD concentration, MDA concentration, 8-OHdG concentration, ZIP4 concentration, and serum zinc concentration were measured. […]

8-OHdG = experiment: Jejunal 8-OHdG concentration in rats fed a low-zinc diet; settings: male Slc/SD rats, low-zinc diet 7 days, gavage on days 5 and 6 (0.5 mL/100 g B.W.), organs harvested 24 hours after day 6 dose; low-zinc diet group 9.31±0.29, standard diet group 6.82±0.56
Description: as §1, §2, §3, §4, §5

MDA = experiment: Jejunal MDA concentration in rats fed a low-zinc diet; settings: male Slc/SD rats, gavage on days 5 and 6, result in words, low-zinc diet group 6.67±0.47, standard diet group 4.53±0.26 mg/g of jejunum
Description: as §1, §2, §3, §4, §5

[1] = Serum zinc concentration in rats fed a low-zinc diet; settings: male Slc/SD rats, gavage on days 5 and 6, result in words
Description: as §1, §2, §3, §4, §5

COc1c(O)cc(CO)cc1O [synthetic DHMBA, 3,5-dihydroxy-4-methoxybenzyl alcohol]
jejunal ZIP4 concentration (ZIP4): 6.44 ± 0.76 pg/mg
jejunal 8-OHdG concentration (8-OHdG): 7.81±0.49 ng/g of jejunum
jejunal MDA concentration compared with low-zinc diet group (MDA): decrease in MDA
serum zinc concentration compared with low-zinc diet group [1]: significantly higher
